In article PMC6917776, “Discovery of a chemical probe for PRDM9” (Nature Communications, 2019):
Like-named read-outs stand apart in the source and are kept apart here.

Assay: CelltiterGlo viability cell assay
Type: cell-based
Settings: human
Summary of the method: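 CelltiterGlo luminescence, day 3 and day 6 readouts; compound 0.01–30 μM; data normalized to DMSO; n=3 biological replicates ± SEM.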

[1] = MDA-MB-436 breast cancer cells, MDA MB436, 3 day, read-out: viability Replicate 2
[2] = MDA-MB-436 breast cancer cells, MDA MB436, 3 day, read-out: viability Replicate 3
[3] = MDA-MB-436 breast cancer cells, MDA MB436, 3 day, read-out: viability Average
[4] = MDA-MB-436 breast cancer cells, MDA MB436, 3 day, read-out: viability Replicate 1
[5] = MDA-MB-436 breast cancer cells, MDA MB436, 6 day, read-out: viability Average
[6] = MDA-MB-436 breast cancer cells, MDA MB436, 6 day, read-out: viability Replicate 1
[7] = MDA-MB-436 breast cancer cells, MDA MB436, 6 day, read-out: viability Replicate 2
[8] = MDA-MB-436 breast cancer cells, MDA MB436, 6 day, read-out: viability Replicate 3
[9] = MDA-MB-436 cells, MDA MB436, 3 day, read-out: viability Replicate 1
[10] = MDA-MB-436 cells, MDA MB436, 3 day, read-out: viability Replicate 2
[11] = RPMI-8226 cells (multiple myeloma line), 8226, 3 day, read-out: viability Average
[12] = RPMI-8226 cells (multiple myeloma line), 8226, 3 day, read-out: viability Replicate 1
[13] = RPMI-8226 cells (multiple myeloma line), 8226, 3 day, read-out: viability Replicate 2
[14] = RPMI-8226 cells (multiple myeloma line), 8226, 3 day, read-out: viability Replicate 3
[15] = RPMI-8226 cells (multiple myeloma line), 8226, 6 day, read-out: viability Average
[16] = RPMI-8226 cells (multiple myeloma line), 8226, 6 day, read-out: viability Replicate 1
[17] = RPMI-8226 cells (multiple myeloma line), 8226, 6 day, read-out: viability Replicate 2
[18] = RPMI-8226 cells (multiple myeloma line), 8226, 6 day, read-out: viability Replicate 3
[19] = RPMI-8226 cells, 8226, 3 day, read-out: viability Average
[20] = RPMI-8226 cells, 8226, 3 day, read-out: viability Replicate 1
[21] = RPMI-8226 cells, 8226, 3 day, read-out: viability Replicate 2
[22] = RPMI-8226 cells, 8226, 3 day, read-out: viability Replicate 3
[23] = RPMI-8226 multiple myeloma cells, 8226, 3 day, read-out: viability Average

## COc1cc(OC)cc(-c2noc(N3CCN(C)C4(CCN(c5ccnc(C)c5)CC4)C3)n2)c1 [MRK-740]
[1]
  viability at 3 day, 0.01 µM: 98.8%
  viability at 3 day, 0.03 µM: 99.1%
  viability at 3 day, 1 µM: 105%
  viability at 3 day, 3 µM: 100%
  viability at 3 day, 9.5 µM: 89.3%
  viability at 3 day, 30 µM: 50%
[2]
  viability at 3 day, 0.01 µM: 92%
  viability at 3 day, 0.03 µM: 92%
  viability at 3 day, 0.3 µM: 92.8%
  viability at 3 day, 1 µM: 93.4%
  viability at 3 day, 3 µM: 91.2%
  viability at 3 day, 9.5 µM: 87.6%
  viability at 3 day, 30 µM: 43.6%
[3]
  viability at 3 day, 0.03 µM: 105%
  viability at 3 day, 0.3 µM: 94.8%
  viability at 3 day, 1 µM: 104%
  viability at 3 day, 3 µM: 104%
  viability at 3 day, 9.5 µM: 94.9%
  viability at 3 day, 30 µM: 51.5%
[4]
  viability at 3 day, 0.03 µM: 124%
  viability at 3 day, 1 µM: 114%
  viability at 3 day, 3 µM: 120%
  viability at 3 day, 9.5 µM: 108%
  viability at 3 day, 30 µM: 60.8%
[5]
  viability at 6 day, 0.01 µM: 103%
  viability at 6 day, 0.03 µM: 102%
  viability at 6 day, 0.1 µM: 104%
  viability at 6 day, 0.3 µM: 107%
  viability at 6 day, 1 µM: 112%
  viability at 6 day, 3 µM: 113%
  viability at 6 day, 9.5 µM: 70.8%
  viability at 6 day, 30 µM: 35.6%
[6]
  viability at 6 day, 0.01 µM: 97.8%
  viability at 6 day, 0.03 µM: 99.8%
  viability at 6 day, 0.1 µM: 105%
  viability at 6 day, 0.3 µM: 108%
  viability at 6 day, 1 µM: 109%
  viability at 6 day, 3 µM: 115%
  viability at 6 day, 9.5 µM: 69.6%
  viability at 6 day, 30 µM: 34.7%
[7]
  viability at 6 day, 0.01 µM: 106%
  viability at 6 day, 0.03 µM: 100%
  viability at 6 day, 0.1 µM: 101%
  viability at 6 day, 0.3 µM: 105%
  viability at 6 day, 1 µM: 116%
  viability at 6 day, 3 µM: 112%
  viability at 6 day, 9.5 µM: 71%
  viability at 6 day, 30 µM: 35.7%
[8]
  viability at 6 day, 0.01 µM: 107%
  viability at 6 day, 0.03 µM: 106%
  viability at 6 day, 0.1 µM: 106%
  viability at 6 day, 0.3 µM: 109%
  viability at 6 day, 1 µM: 111%
  viability at 6 day, 3 µM: 112%
  viability at 6 day, 9.5 µM: 71.9%
  viability at 6 day, 30 µM: 36.5%
MDA-MB-436 cells, MDA MB436, 3 day, read-out: viability Average
  viability at 3 day, 0.1 µM: 105%
[9]
  viability at 3 day, 0.1 µM: 123%
  viability at 3 day, 0.3 µM: 91.5%
[10]
  viability at 3 day, 0.1 µM: 102%
  viability at 3 day, 0.3 µM: 100%
MDA-MB-436 cells, MDA MB436, 3 day, read-out: viability Replicate 3
  viability at 3 day, 0.1 µM: 90.1%
[11]
  viability at 3 day, 9.5 µM: 98.3%
  viability at 3 day, 30 µM: 54.9%
[12]
  viability at 3 day, 9.5 µM: 105%
  viability at 3 day, 30 µM: 74.2%
[13]
  viability at 3 day, 9.5 µM: 96.6%
  viability at 3 day, 30 µM: 34.5%
[14]
  viability at 3 day, 9.5 µM: 93.4%
  viability at 3 day, 30 µM: 56%
[15]
  viability at 6 day, 0.01 µM: 102%
  viability at 6 day, 0.03 µM: 101%
  viability at 6 day, 0.1 µM: 100%
[16]
  viability at 6 day, 0.01 µM: 101%
  viability at 6 day, 0.03 µM: 100%
  viability at 6 day, 0.1 µM: 96.9%
[17]
  viability at 6 day, 0.01 µM: 102%
  viability at 6 day, 0.03 µM: 101%
  viability at 6 day, 0.1 µM: 102%
[18]
  viability at 6 day, 0.01 µM: 102%
  viability at 6 day, 0.03 µM: 102%
  viability at 6 day, 0.1 µM: 102%
[19]
  viability at 3 day, 0.01 µM: 98.4%
  viability at 3 day, 0.03 µM: 99.5%
[20]
  viability at 3 day, 0.01 µM: 97.7%
  viability at 3 day, 0.03 µM: 97.9%
[21]
  viability at 3 day, 0.01 µM: 100%
  viability at 3 day, 0.03 µM: 100%
[22]
  viability at 3 day, 0.01 µM: 97.6%
  viability at 3 day, 0.03 µM: 100%
[23]
  viability at 3 day, 0.1 µM: 101%
  viability at 3 day, 0.3 µM: 102%
RPMI-8226 multiple myeloma cells, 8226, 3 day, read-out: viability Replicate 1
  viability at 3 day, 0.1 µM: 99.2%
RPMI-8226 multiple myeloma cells, 8226, 3 day, read-out: viability Replicate 2
  viability at 3 day, 0.1 µM: 101%
RPMI-8226 multiple myeloma cells, 8226, 3 day, read-out: viability Replicate 3
  viability at 3 day, 0.1 µM: 103%
